In patent US7084163B2, “Heterocyclic carboxamides and their use as fungicides” (Bayer Cropscience S.A., priority 2001, dated 2006):

Key:
[1] = test system: Erisyphe graminis f. sp. tritici; assay: In vivo test on Erisyphe graminis f. sp. tritici (powdery mildew of wheat), preventive spray; details: Triticum aestivum; dose of 500 g/ha; wheat plants (Audace variety); contaminated 24 hours after treatment; grading 7 to 14 days after contamination vs control plants; read-out: good (at least 50%) or total protection
Method: An aqueous suspension, at a concentration of 1.5%, of the active material tested is obtained by grinding it finely in a formulation of concentrated suspension type. This aqueous suspension is then diluted in water so as to obtain the desired active material concentration. Wheat plants (Audace variety) in starter cups, sown on 50/50 peat soil-pozzulana substrate and grown at 12° C., are treated at the 1-leaf stage (10 cm tall) by spraying with the aqueous suspension described above. Plants, used as controls, are treated with an aqueous solution not containing the active material. After 24 hours, the plants are contaminated by dusting them with Erisyphe graminis f. sp. tritici spores, the dusting being carried out using diseased plants.

[2] = test system: Puccinia recondita; assay: In vivo test on Puccinia recondita (wheat brown rust), preventive spray; details: 240 h, dose of 500 g/ha, wheat plants (Scipion variety), contaminated 24 hours after treatment, grading 10 days after contamination vs control plants, read-out: good (at least 50%) protection
Method: (§1) An aqueous suspension, at a concentration of 1.5%, of the active material tested is obtained by grinding it finely in a formulation of concentrated suspension type, This aqueous suspension is then diluted in water so as to obtain the desired active material concentration. Wheat plants (Scipion variety) in starter cups, sown on a 50/50 peat soil-pozzolana substrate and grown at 12° C., are treated at the 1-leaf stage (10 cm tall) by spraying with the aqueous suspension described above. Plants, used as controls, are treated with an aqueous solution not containing the active material.
After 24 hours, the plants are contaminated by spraying them with an aqueous suspension of Puccinia recondita spores (150,000 spores per mL). The contaminated wheat plants are incubated for 24 hours at about 20° C. and at 100% relative humidity, and then for 10 days at 70% relative humidity.
Grading is carried out 10 days after the contamination, in comparison with the control plants. Under these conditions, good (at least 50%) protection is observed, at a dose of 500 g/ha, with the following compounds described as example: 6, 10, 11, 12, 13, 14, 15, 28, 29, 30, 31, 34, 37, 42, 45, 46, 50, 51, 52, 62, 72.

[3] = test system: Septoria tritici; assay: In vivo test on Septoria tritici (leaf spot of wheat), preventive spray; details: Zymoseptoria tritici; dose of 500 g/ha; wheat plants (Scipion variety); contaminated 24 hours after treatment; grading 15 to 20 days after contamination vs control plants; read-out: good (at least 50%) protection
Method: as §1, with “type.” for “type,”
After 24 hours, the plants are contaminated by spraying them with an aqueous suspension of Septoria tritici spores (500,000 spores per mL). The spores are collected from a 15-day-old culture and are suspended in a nutrient solution composed of: • 1.5 g/L of gelatine • 0.5 g/L of sodium oleate • 24 g/L of PDB
The contaminated wheat plants are incubated for 72 hours at about 20° C. and at 100% relative humidity, and then for 15 days at 80% relative humidity.

[4] = test system: Drechslera teres; assay: In vivo test on Drechslera teres (barley net blotch), preventive spray; details: Pyrenophora teres, 288 h; dose of 500 g/ha; barley plants (Express variety); contaminated 24 hours after treatment; grading 12 days after contamination vs control plants; read-out: good (at least 50%) protection
Method: (§2) An aqueous suspension, at a concentration of 1.5%, of the active material. tested is obtained by grinding it finely in a formulation of concentrated suspension type. This aqueous suspension is then diluted in water so as to obtain the desired active material concentration. Barley plants (Express variety) in starter cups, sown on a 50/50 peat soil-pozzolana substrate and grown at 12° C., are treated at the 1-leaf stage (10 cm tall) by spraying with the aqueous suspension described above. Plants, used as controls, are treated with an aqueous solution not containing the active material.
After 24 hours, the plants are contaminated by spraying them with an aqueous suspension of Dreschslera teres spores (12,000 spores per mL). The spores are collected from a 12-day-old culture. The contaminated wheat plants are incubated for 24 hours at about 20° C. and at 100% relative humidity, and then for 12 days at 80% relative humidity.
Grading is carried out 12 days after the contamination, in comparison with the control plants. Under these conditions, good (at least 50%) protection is observed, at a dose of 500 g/ha, with the compounds described as example: 9, 13, 14, 15, 18, 20, 21, 22, 24, 26, 27, 30, 31, 32, 33, 34, 35, 36, 37, 41, 43, 45, 47, 49, 62, 69, 70, 72.

[5] = test system: Rhynchosporium secalis; assay: In vivo test on Rhynchosporium secalis (barley leaf scald), preventive spray; details: dose of 500 g/ha; barley plants (Express or Barrack variety); contaminated 24 hours after treatment; grading 12/14 days after contamination vs control plants
Method: as §2, with “the active material tested is” for “the active material. tested is”, “plants (Express or Barrack variety) in” for “plants (Express variety) in”
After 24 hours, the plants are contaminated by spraying them with an aqueous suspension of Rhynchosporium secalis spores (800,000 spores per mL). The contaminated wheat plants are incubated for 48 hours at about 20° C. and at 100% relative humidity, and then for 12/14 days at 80% relative humidity.
Grading is carried out 12/14 days after the contamination, in comparison with the control plants. Under these conditions, good (at least 50%) protection is observed, at a dose of 500 g/ha, with the following compound described as example: 32.

melting point [°C]	Compound	pest or weed control at 500 g/ha [1] [%]	pest or weed control at 500 g/ha [2] [%]	pest or weed control at 500 g/ha [3] [%]	pest or weed control at 500 g/ha [4] [%]	good (at least 50%) protection [5]
–	Cn1nc(C(=O)Nc2ccc(Oc3cccc(C(F)(F)F)c3)cc2)c(O)c1N [compound 44, 1-Methyl-4-hydroxy-5-amino-N-para-[3-(trifluoromethyl)phenoxy]phenyl pyrazole-3-carboxamide]	≥ 50	–	–	–	–
–	CCOC(=O)c1c(OC)c(C(=O)Nc2ccc(Oc3ccc(C(F)(F)F)cc3)cc2)cn1C [compound 12, 1-methyl-2-ethoxycarbonyl-3-methoxy-1H-N-para-[4-(trifluoromethyl)phenoxy]phenyl-pyrrole-4-carboxamide]	≥ 50	≥ 50	–	–	–
–	Nc1nccc(C(=O)Nc2ccc(Oc3ccc(C(F)(F)F)cc3)cc2)c1O [compound 19, [4-(Trifluoromethyl)phenoxy]anilino-(2-amino-3-hydroxy)pyridyl-4-carboxamide]	≥ 50	–	–	–	–
–	Nc1noc(C(=O)Nc2ccc(Oc3ccc(C(F)(F)F)cc3)cc2)c1O [compound 32, 3-Amino4-hydroxy-N-para-[4-(trifluoromethyl)phenoxy]phenylisoxazole-5-carboxamide]	≥ 50	–	≥ 50	≥ 50	at least 50%
–	Cc1nc(C)c(-n2cccc2)c(O)c1C(=O)Nc1ccc(OC(F)(F)C(F)F)cc1 [compound 55, 2,6-dimethyl-5-pyrrol-1-yl-4-hydroxy-N-para-(1,1,2,2 tetrafluoroethoxy)phenyl nicotinamide]	≥ 50	–	–	–	–
–	COc1c(C(=O)Nc2ccc(Oc3ccc(C(F)(F)F)cc3)cc2)cn(C)c1N [compound 14, 1-methyl-2-amino-3-methoxy-1H-N-para-[4-(trifluoromethyl)phenoxy]phenyl-pyrrole-4-carboxamide]	≥ 50	≥ 50	–	≥ 50	–
–	CCOC(=O)c1c(O)c(C(=O)Nc2ccc(Oc3ccc(C(F)(F)F)cc3)cc2)cn1C [compound 15, 1-methyl-2-ethoxycarbonyl-3-hydroxy-1H-N-para-[4-(trifluoromethyl)phenoxy]phenyl-pyrrole-4-carboxamide]	≥ 50	≥ 50	≥ 50	≥ 50	–
–	Nc1cc(C(=O)Nc2ccc(Oc3ccc(C(F)(F)F)cc3)cc2)ns1 [compound 42, 5-Amino-N-para-[4-(trifluoromethyl)phenoxy]phenyl-isothiazole-3-carboxamide]	≥ 50	≥ 50	≥ 50	–	–
–	CC(C)N1CC(C(=O)Nc2ccc(Oc3ccccc3)cc2)=C(O)C1=O [compound 72, N-4-(phenoxy)phenyl-(1-N-isopropyl-4-hydroxy-5-dioxo-2,5-dihydro-1H)-pyrrol-3-carboxamide]	–	≥ 50	≥ 50	≥ 50	–
–	COC(=O)c1onc(C(=O)Nc2ccc(Oc3ccc(C(F)(F)F)cc3)cc2)c1OC [compound 39]	–	–	≥ 50	–	–
203 to 204	CCCCOc1ccc(NC(=O)c2occc(=O)c2O)cc1 [compound 59, N-(4-Butyloxy-phenyl)-2-(3-hydroxy-γ-pyranone)-carboxamide]	≥ 50	–	≥ 50	–	–
–	COC(=O)Nc1noc(C(=O)Nc2ccc(Oc3ccc(C(F)(F)F)cc3)cc2)c1OC [compound 28]	≥ 50	≥ 50	–	–	–
–	CC(C)N1CC(C(=O)Nc2ccc(Oc3ccc(C(F)(F)F)cc3)cc2)=C(O)C1=O [compound 73, N-(4-(4-Trifluormethyl)phenoxy)phenyl-[(1-isopropyl-4-hydroxy-5-dioxo-2,5-dihydro-1H)-pyrrol]-3-carboxamide]	≥ 50	–	–	–	–
–	CCCCOc1ccc(NC(=O)c2c(O)c(N)cn2C)cc1 [compound 9, 1-Methyl-4-amino-3-hydroxy-1H-N-(4-butoxy-phenyl)pyrrole-2-carboxamide]	–	–	≥ 50	≥ 50	–
–	Nc1cncc(C(=O)Nc2ccc(Oc3cccc(C(F)(F)F)c3)cc2)c1O [compound 45, 5-amino-4-hydroxy-N-para-[3-(trifluoromethyl)phenoxy]phenyl nicotinamide]	≥ 50	≥ 50	≥ 50	≥ 50	–
–	C=CCOC(=O)Nc1cn(C)c(C(=O)Nc2ccc(Oc3ccc(C(F)(F)F)cc3)cc2)c1OC [compound 5, 1-Methyl-4-[(allyloxycarbonyl)amino]-3-methoxy-1H—N-para-[4-(trifluoromethyl)phenoxy]phenyl-pyrrole-2-carboxamide]	≥ 50	–	–	–	–
–	COc1c(C(=O)Nc2ccc(Oc3ccc(C(F)(F)F)cc3)cc2)cn(C)c1C(=O)O [compound 13, 1-methyl-2-hydroxycarbonyl-3-methoxy-1H-N-para-[4-(trifluoromethyl)phyenoxy]phenyl-pyrrole-4-carboxamide]	≥ 50	≥ 50	–	≥ 50	–
–	COc1c(C(N)=O)cncc1C(=O)Nc1ccc(Oc2ccc(C(F)(F)F)c(Cl)c2)cc1 [compound 50, 5-aminocarbonyl-4-methoxy-N-para-[3-chloro-4-(trifluoromethyl)phenoxy]phenyl nicotinamide]	–	≥ 50	≥ 50	–	–
–	COC(=O)c1cncc(C(=O)Nc2ccc(Oc3ccc(C(F)(F)F)c(Cl)c3)cc2)c1OC [compound 49, 5-methoxycarbonyl-4-methoxy-N-para-[3-chloro-4-(trifluoromethyl)phenoxy]phenyl nicotinamide]	≥ 50	–	≥ 50	≥ 50	–
